According to patent publication US20260315451A1, “MEDICINE FOR TREATING CANCER” (SCIENCE TECHNOLOGY INTERACT CO., LTD., priority 2022, published 2026):

What was measured:
Format in all cases: cell-based, human
HeLa cells = assay: Cell viability of HeLa cells with siRNA of control, BRCA1 or RAD51 (drug sensitivity test, Presto Blue; Example 1); settings: siRNA of BRCA1 or RAD51, drug added 24 h later, 96 h culture, FIG. 1B/1C
Protocol: HeLa cells (human cervical cancer cell line) were purchased from ATCC (Manassas, VA, USA). HeLa cells were cultured in DMEM medium (Nissui Pharmaceutical Co., Ltd., Tokyo, Japan) supplemented with 8% Fetal Bovine Serum (FBS) (Biowest Inc., Nuaille, France) and 3% L-glutamine at 37° C. in the presence of 5% CO2.
(§1) A stock solution of Nicaraven was prepared by dissolving Nicaraven in DMEM medium at a final concentration of 40 mM and sterilizing the solution through a filter. Olaparib (Adooq Bioscience, Irvine, CA, USA) was prepared as a stock solution of Olaparib in DMSO (FUJIFILM Wako Pure Chemical Corporation, Osaka, Japan) at a final concentration of 50 mM. […]
HeLa cell suspension adjusted to 5000 cells/ml was seeded in a 96 well plate at 100 μl/well, and the next day, siRNA was introduced, followed by addition of Olaparib or Nicaraven. One hundred twenty hours after gene introduction and Olaparib addition, Hela cells were replaced in a medium to which Presto Blue assay (Thermo-Fisher Scientific, Waltham, MA, USA) had been added so as to have a final concentration of 5%, followed by reaction in the presence of 5% CO2 at 37° C. for 1 hour, and then fluorescence was measured under conditions of an excitation wavelength of 520 nm and a fluorescence wavelength of 580 to 640 nm using GloMax (registered trademark) Explorer Multimode Microplate Reader (Promega, Madison, WI, USA). […]

[1] = tested on: homologous recombination activity in HeLa cells; assay: Homologous recombination activity (ASHRA, knock-in efficiency by quantitative PCR; Example 2); settings: control cells and cells with BRCA1 and RAD51 expression suppressed; 48 h culture with drug; FIG. 2B
Description: FIG. 5 illustrates an outline of a method for measuring homologous recombination repair (HR) activity (Assay for site-specific HR activity (ASHRA)) performed in Examples. In this method, a CRISPR/Cas9 system used for genome editing as a site-specific DNA cleaving enzyme is used to create a site-specific DNA double strand break in a target endogenous gene. Then, a fusion gene of a reporter and a target gene is generated by HR between a DNA fragment as a substrate for HR containing the reporter and the target endogenous gene. The production efficiency of the fusion gene of a reporter and a target gene is quantified as the HR repair activity of cell in the cell. For the method for detecting a fusion gene, flow cytometry, Western blotting, quantitative PCR, or the like can be used while changing the reporter. Step 1: Introduce Cas9/guide RNA expression vector and donor vector into cells. […] Step 4: Detecting knock-in efficiency of marker ((1) Western blotting, (2) flow cytometry, (3) quantitative PCR). […]
HeLa cells were seeded on a 3.5 cm dish, and the next day, siRNA was introduced. […] Genome quantitative PCR was performed using Go Taq qPCR master mix (Promega, Madison, WI, USA), measurement was done using CFX96 Touch Real-time PCR detection system (BioRad, Hercules, CA, USA), and knock-in efficiency was calculated by ΔΔCt method. […]

[2] = tested on: γ-H2AX, a marker of DNA double-strand break, in HeLa cells; assay: γ-H2AX intranuclear foci after X-ray irradiation (DNA double-strand break repair, immunostaining; Example 3); settings: drug 30 min before 1.5 Gy X-ray, 24 h after irradiation, FIG. 3
Protocol: After cell seeding, Nicaraven was added. After 30 minutes, the cells were irradiated with 1.5 Gy of X-ray, and after 2 hours and 24 hours, the cells were fixed and immunostained with an anti-γ-H2AX antibody.
Cells in which five or more γ-H2AX intranuclear foci were observed were counted, and the ratio was calculated and represented in a graph. Respective cells in which less than 5, 5 or more and less than 10, 10 or more and less than 20, and 20 or more γ-H2AX intranuclear foci were observed were counted, and the ratio was calculated and represented in a graph (FIG. 3D).

KYSE270 cells = assay: Cell viability of KYSE270 esophageal cancer cells with siRNA of control or RAD51 (Example 5); settings: siRNA of RAD51, drug added 24 h later, 5 days culture, FIG. 6B
Protocol: KYSE270 cells and KYSE30 cells (human esophageal squamous cell carcinoma cell line) were purchased from JCRB Cell Bank, National Institutes of Biomedical Innovation, Health and Nutrition (Osaka, Japan). KYSE270 cells and KYSE30 cells were cultured in a medium in which RPMI1640 and Ham's F12 medium (both of which were manufactured by FUJIFILM Wako Pure Chemical Corporation, Osaka, Japan) were mixed in equal amounts and 5% FBS was added at 37° C. in the presence of 5% CO2.
as §1
FIG. 6A. Protocol of an experiment in which cell viability under Olaparib, Nicaraven or Edaravone treatment on cells having reduced homologous recombination activity was analyzed. siRNA of control or RAD51 was introduced into esophageal cancer cells KYSE270 cells, and 24 hours later, either Olaparib or Nicaraven was added. After 5 days of culture, cell viability was measured.

KYSE30 cells = assay: Cell viability of KYSE30 esophageal cancer cells with siRNA of RAD51 (Example 5); settings: siRNA of RAD51, drug added 24 h later, compared with the control, FIG. 7

SMILES	cell viability when expression of BRCA1 and RAD51 was suppressed (HeLa cells)	homologous recombination activity [1]	DNA damage remaining (γ-H2AX intranuclear foci), RAD51-suppressed versus control ([2]; RAD51 expression suppressed)	DNA damage remaining (γ-H2AX intranuclear foci), control and RAD51-suppressed cells ([2]; control and RAD51-suppressed)	cell viability when expression of RAD51 is suppressed (KYSE270 cells)	cell viability in cells in which expression of RAD51 was suppressed (KYSE30 cells)
CC(CNC(=O)c1cccnc1)NC(=O)c1cccnc1 (centres unmarked) [Nicaraven]	cell viability further decreased	did not affect the homologous recombination ability	DNA damage remained more remarkably in the state in which the expression of RAD51 was suppressed	caused DNA damage to remain in both the control and the state in which the expression of RAD51 was suppressed	cell viability further decreased	cell viability decreased in cells in which expression of RAD51 was suppressed, as compared with the control
O=C(c1cc(Cc2n[nH]c(=O)c3ccccc23)ccc1F)N1CCN(C(=O)C2CC2)CC1 [Olaparib, reference compound]	decreased cell viability in cells in which expression of BRCA1 and RAD51 was suppressed, as compared with the control	–	–	–	decreased cell viability in cells in which expression of RAD51 was suppressed, as compared with the control	–
